Patent US9101160B2, “Condiments with high-potency sweetener” (The Coca-Cola Company, priority 2005, dated 2015)

Type: physicochemical
Protocol: A solution of rebaudioside A ( >97% pure by HPLC ) was prepared in double distilled water (12.5 gm in 50 mL, 25% concentration) by stirring the mixture at 40° C. for 5 minutes. An amorphous form of rebaudioside A was formed by immediately using the clear solution for spray drying with the Lab-Plant spray drier SD-04 instrument (Lab-Plant Ltd., West Yorkshire, U.K.). The solution was fed through the feed pump into the nozzle atomizer which atomized it into a spray of droplets with the help of a constant flow of nitrogen/air. […] This dry powder (11-12 g, H2O 6.74%) was discharged continuously from the drying chamber and was collected in a bottle.

- solubility in water at room temperature: > 35.0%
Substance: rebaudioside A [Form 4]
